In ChEMBL document CHEMBL5058649, “Data for DCP probe BAY 1816032” (2022):

Experiments:
Rattus norvegicus = species on record: Rattus norvegicus; experiment: Inhibition of Glutamate, NMDA, Phencyclidine at 10 µM in the Eurofins-Panlabs radioligand binding assay (Eurofins_assay_233000); type: protein-complex assay; conditions: Compound concentration 10.0 uM
[1] = target: voltage-gated sodium channel, site 2 (Rattus norvegicus, UniProt F1LQQ7+O08562+O88420+O88457+P04774+P04775+P08104+P15389+P15390+Q62968); experiment: Inhibition of Sodium Channel, Site 2 at 10 µM in the Eurofins-Panlabs radioligand binding assay (Eurofins_assay_279510); type: protein assay; parameters: ligand concentration 5 nM, non-specific ligand with concentration 100 µM Veratridine, incubation time 60 min, incubation temperature 37 °C; conditions: male, Wistar, rat whole brain (except cerebellum) membranes, probe [3H] Batrachotoxinin, compound concentration 10 uM
Homo sapiens = species on record: Homo sapiens; experiment: Chemokine CCR1 Eurofins-Panlabs radioligand binding assay; parameters: ligand concentration 0.1 nM; conditions: Compound concentration 10.0 uM
[2] = target: Mitotic checkpoint serine/threonine-protein kinase BUB1 (Homo sapiens, UniProt O43683); experiment: BUB1 DiscoveRx kinase panel
[3] = target: Epithelial discoidin domain-containing receptor 1 (Homo sapiens, UniProt Q08345); experiment: DDR1 DiscoveRx kinase panel
[4] = target: Mitogen-activated protein kinase 9 (Homo sapiens) (UniProt P45984); experiment: JNK2 DiscoveRx kinase panel; conditions: Compound concentration 1.0 uM
[5] = target: Dual specificity protein kinase TTK (Homo sapiens) (UniProt P33981); experiment: TTK DiscoveRx kinase panel; conditions: Compound concentration 1.0 uM
[6] = target: Receptor-interacting serine/threonine-protein kinase 4 (Homo sapiens) (UniProt P57078); experiment: RIPK4 DiscoveRx kinase panel; conditions: Compound concentration 1.0 uM
[7] = target: Casein kinase I isoform gamma-1 (Homo sapiens) (UniProt Q9HCP0); experiment: CSNK1G1 DiscoveRx kinase panel; conditions: Compound concentration 1.0 uM
[8] = target: Cyclin-G-associated kinase (Homo sapiens) (UniProt O14976); experiment: GAK DiscoveRx kinase panel; conditions: Compound concentration 1.0 uM
[9] = target: Serine/threonine-protein kinase 38-like (Homo sapiens) (UniProt Q9Y2H1); experiment: NDR2 DiscoveRx kinase panel; conditions: Compound concentration 1.0 uM
[10] = target: Serine/threonine-protein kinase 3 (Homo sapiens) (UniProt Q13188); experiment: MST2 DiscoveRx kinase panel; conditions: Compound concentration 1.0 uM
[11] = target: Protein kinase C iota type (Homo sapiens) (UniProt P41743); experiment: PRKCI DiscoveRx kinase panel; conditions: Compound concentration 1.0 uM
[12] = target: Cyclin-dependent kinase-like 3 (Homo sapiens) (UniProt Q8IVW4); experiment: CDKL3 DiscoveRx kinase panel; conditions: Compound concentration 1.0 uM
[13] = target: Ephrin type-A receptor 6 (Homo sapiens) (UniProt Q9UF33); experiment: EPHA6 DiscoveRx kinase panel; conditions: Compound concentration 1.0 uM
[14] = target: Tyrosine-protein kinase Fyn (Homo sapiens) (UniProt P06241); experiment: FYN DiscoveRx kinase panel; conditions: Compound concentration 1.0 uM
[15] = target: Serine/threonine-protein kinase DCLK2 (Homo sapiens) (UniProt Q8N568); experiment: DCAMKL2 DiscoveRx kinase panel; conditions: Compound concentration 1.0 uM
[16] = target: Serine/threonine-protein kinase Nek2 (Homo sapiens) (UniProt P51955); experiment: NEK2 DiscoveRx kinase panel; conditions: Compound concentration 1.0 uM
[17] = target: Serine/threonine-protein kinase N1 (Homo sapiens) (UniProt Q16512); experiment: PKN1 DiscoveRx kinase panel; conditions: Compound concentration 1.0 uM
[18] = target: 5'-AMP-activated protein kinase catalytic subunit alpha-2 (Homo sapiens) (UniProt P54646); experiment: AMPK-alpha2 DiscoveRx kinase panel; conditions: Compound concentration 1.0 uM
[19] = target: Serine/threonine-protein kinase 17A (Homo sapiens) (UniProt Q9UEE5); experiment: DRAK1 DiscoveRx kinase panel; conditions: Compound concentration 1.0 uM
[20] = target: Protein-tyrosine kinase 2-beta (Homo sapiens) (UniProt Q14289); experiment: PYK2 DiscoveRx kinase panel; conditions: Compound concentration 1.0 uM
[21] = target: Ephrin type-A receptor 4 (Homo sapiens) (UniProt P54764); experiment: EPHA4 DiscoveRx kinase panel; conditions: Compound concentration 1.0 uM
[22] = target: Serine/threonine-protein kinase Nek11 (Homo sapiens) (UniProt Q8NG66); experiment: NEK11 DiscoveRx kinase panel; conditions: Compound concentration 1.0 uM
[23] = target: Macrophage colony-stimulating factor 1 receptor (Homo sapiens) (UniProt P07333); experiment: CSF1R DiscoveRx kinase panel; conditions: Compound concentration 1.0 uM
[24] = target: RAC-gamma serine/threonine-protein kinase (Homo sapiens) (UniProt Q9Y243); experiment: AKT3 DiscoveRx kinase panel; conditions: Compound concentration 1.0 uM
[25] = target: Ankyrin repeat and protein kinase domain-containing protein 1 (Homo sapiens) (UniProt Q8NFD2); experiment: ANKK1 DiscoveRx kinase panel; conditions: Compound concentration 1.0 uM
[26] = target: Cyclin-dependent kinase 4 (Homo sapiens) (UniProt P11802); experiment: CDK4 DiscoveRx kinase panel; conditions: Compound concentration 1.0 uM
[27] = target: CDK4/Cyclin D3 (Homo sapiens) (UniProt P11802+P30281); experiment: CDK4-cyclinD3 DiscoveRx kinase panel; type: protein-complex assay; conditions: Compound concentration 1.0 uM
[28] = target: Homeodomain-interacting protein kinase 3 (Homo sapiens) (UniProt Q9H422); experiment: HIPK3 DiscoveRx kinase panel; conditions: Compound concentration 1.0 uM
[29] = target: Tyrosine-protein kinase Lyn (Homo sapiens) (UniProt P07948); experiment: LYN DiscoveRx kinase panel; conditions: Compound concentration 1.0 uM
[30] = target: MAP kinase-interacting serine/threonine-protein kinase 1 (Homo sapiens) (UniProt Q9BUB5); experiment: MKNK1 DiscoveRx kinase panel; conditions: Compound concentration 1.0 uM
[31] = target: Serine/threonine-protein kinase 4 (Homo sapiens) (UniProt Q13043); experiment: MST1 DiscoveRx kinase panel; conditions: Compound concentration 1.0 uM
[32] = target: Serine/threonine-protein kinase OSR1 (Homo sapiens) (UniProt O95747); experiment: OSR1 DiscoveRx kinase panel; conditions: Compound concentration 1.0 uM
[33] = target: Serine/threonine-protein kinase PAK 1 (Homo sapiens) (UniProt Q13153); experiment: PAK1 DiscoveRx kinase panel; conditions: Compound concentration 1.0 uM
[34] = target: 3-phosphoinositide-dependent protein kinase 1 (Homo sapiens) (UniProt O15530); experiment: PDPK1 DiscoveRx kinase panel; conditions: Compound concentration 1.0 uM
[35] = target: cAMP-dependent protein kinase catalytic subunit PRKX (Homo sapiens) (UniProt P51817); experiment: PRKX DiscoveRx kinase panel; conditions: Compound concentration 1.0 uM
[36] = target: Ribosomal protein S6 kinase alpha-2 (Homo sapiens) (UniProt Q15349); experiment: RSK3(Kin.Dom.2-C-terminal) DiscoveRx kinase panel; conditions: Compound concentration 1.0 uM
[37] = target: Uncharacterized serine/threonine-protein kinase SBK3 (Homo sapiens) (UniProt P0C264); experiment: SgK110 DiscoveRx kinase panel; conditions: Compound concentration 1.0 uM
[38] = target: Mitogen-activated protein kinase kinase kinase 7 (Homo sapiens) (UniProt O43318); experiment: TAK1 DiscoveRx kinase panel; conditions: Compound concentration 1.0 uM
[39] = target: Serine/threonine-protein kinase TAO3 (Homo sapiens) (UniProt Q9H2K8); experiment: TAOK3 DiscoveRx kinase panel; conditions: Compound concentration 1.0 uM
[40] = target: Vascular endothelial growth factor receptor 2 (Homo sapiens) (UniProt P35968); experiment: VEGFR2 DiscoveRx kinase panel; conditions: Compound concentration 1.0 uM
[41] = target: C-X-C chemokine receptor type 2 (Homo sapiens) (UniProt P25025); experiment: Chemokine CXCR2 (IL-8RB) Eurofins-Panlabs radioligand binding assay; conditions: Compound concentration 10.0 uM
[42] = target: 5-hydroxytryptamine receptor 2B (Homo sapiens) (UniProt P41595); conditions: Compound concentration 10.0 uM
[43] = target: 5-hydroxytryptamine receptor 3A (Homo sapiens) (UniProt P46098); conditions: Compound concentration 10.0 uM
[44] = target: Sigma intracellular receptor 2 (Homo sapiens, UniProt Q5BJF2); conditions: Compound concentration 10.0 uM
[45] = target: Glutamate receptor 2 (Homo sapiens) (UniProt P42262); conditions: Rattus norvegicus; Compound concentration 10.0 uM

Epithelial discoidin domain-containing receptor 1, sequence (Q08345 whole entry, the tested form may be a part): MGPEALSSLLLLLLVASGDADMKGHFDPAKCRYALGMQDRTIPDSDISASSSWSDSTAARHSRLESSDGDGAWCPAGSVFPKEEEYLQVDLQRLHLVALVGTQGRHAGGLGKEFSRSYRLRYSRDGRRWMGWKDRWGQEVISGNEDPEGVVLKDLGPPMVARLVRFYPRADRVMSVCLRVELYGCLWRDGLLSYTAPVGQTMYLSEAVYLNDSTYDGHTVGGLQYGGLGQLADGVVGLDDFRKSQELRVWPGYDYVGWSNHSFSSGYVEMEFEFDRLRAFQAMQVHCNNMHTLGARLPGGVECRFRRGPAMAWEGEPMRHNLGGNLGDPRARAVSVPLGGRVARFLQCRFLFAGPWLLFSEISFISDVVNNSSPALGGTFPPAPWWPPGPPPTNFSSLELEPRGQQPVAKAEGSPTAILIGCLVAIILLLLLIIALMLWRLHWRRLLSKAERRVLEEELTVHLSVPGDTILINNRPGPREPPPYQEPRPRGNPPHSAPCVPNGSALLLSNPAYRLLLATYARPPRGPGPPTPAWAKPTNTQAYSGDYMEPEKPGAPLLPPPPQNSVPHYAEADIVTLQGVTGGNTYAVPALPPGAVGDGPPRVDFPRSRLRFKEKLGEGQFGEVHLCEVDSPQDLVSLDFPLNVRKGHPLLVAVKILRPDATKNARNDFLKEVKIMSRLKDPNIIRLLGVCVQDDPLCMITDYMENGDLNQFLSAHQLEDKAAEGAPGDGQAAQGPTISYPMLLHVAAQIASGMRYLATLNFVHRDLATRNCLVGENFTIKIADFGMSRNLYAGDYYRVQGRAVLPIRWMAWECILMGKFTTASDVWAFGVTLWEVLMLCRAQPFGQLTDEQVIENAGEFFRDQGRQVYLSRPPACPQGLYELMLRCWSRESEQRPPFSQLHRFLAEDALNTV
Tyrosine-protein kinase Fyn (Homo sapiens), sequence (P06241 2-537 limits assumed): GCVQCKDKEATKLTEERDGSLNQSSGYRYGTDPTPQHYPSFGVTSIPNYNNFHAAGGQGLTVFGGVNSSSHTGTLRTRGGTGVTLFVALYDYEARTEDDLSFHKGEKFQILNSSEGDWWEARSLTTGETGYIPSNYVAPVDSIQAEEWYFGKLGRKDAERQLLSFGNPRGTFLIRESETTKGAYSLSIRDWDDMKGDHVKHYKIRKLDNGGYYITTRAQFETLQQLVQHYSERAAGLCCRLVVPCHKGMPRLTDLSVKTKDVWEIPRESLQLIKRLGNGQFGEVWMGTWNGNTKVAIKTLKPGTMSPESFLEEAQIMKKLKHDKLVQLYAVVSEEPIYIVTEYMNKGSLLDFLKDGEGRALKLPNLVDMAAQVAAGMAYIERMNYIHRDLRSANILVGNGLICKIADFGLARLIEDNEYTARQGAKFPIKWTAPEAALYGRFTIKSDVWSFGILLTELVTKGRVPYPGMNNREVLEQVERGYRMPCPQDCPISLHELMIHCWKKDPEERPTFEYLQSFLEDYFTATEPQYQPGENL
Cyclin-dependent kinase 4 (Homo sapiens), sequence (P11802 whole entry): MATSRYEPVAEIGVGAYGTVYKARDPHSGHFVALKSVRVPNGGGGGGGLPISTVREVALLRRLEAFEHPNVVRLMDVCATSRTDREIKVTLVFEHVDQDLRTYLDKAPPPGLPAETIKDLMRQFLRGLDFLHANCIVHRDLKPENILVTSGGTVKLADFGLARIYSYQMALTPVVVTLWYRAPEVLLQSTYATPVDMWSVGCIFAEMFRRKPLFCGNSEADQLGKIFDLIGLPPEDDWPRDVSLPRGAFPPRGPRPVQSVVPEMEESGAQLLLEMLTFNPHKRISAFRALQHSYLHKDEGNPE
Serine/threonine-protein kinase 4 (Homo sapiens), sequence (Q13043 whole entry): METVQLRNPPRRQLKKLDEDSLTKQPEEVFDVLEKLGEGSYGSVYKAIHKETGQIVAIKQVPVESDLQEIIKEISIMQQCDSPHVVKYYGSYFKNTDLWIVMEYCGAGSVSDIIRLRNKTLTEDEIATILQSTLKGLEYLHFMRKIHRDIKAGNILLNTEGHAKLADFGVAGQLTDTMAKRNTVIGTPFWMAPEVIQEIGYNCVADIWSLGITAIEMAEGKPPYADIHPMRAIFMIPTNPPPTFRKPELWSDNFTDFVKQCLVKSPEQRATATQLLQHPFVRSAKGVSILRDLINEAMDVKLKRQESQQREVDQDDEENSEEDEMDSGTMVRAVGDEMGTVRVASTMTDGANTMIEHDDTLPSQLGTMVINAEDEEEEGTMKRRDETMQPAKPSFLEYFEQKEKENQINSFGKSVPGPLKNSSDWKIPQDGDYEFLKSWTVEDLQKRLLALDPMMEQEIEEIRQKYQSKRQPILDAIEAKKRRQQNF
5-hydroxytryptamine receptor 3A (Homo sapiens), sequence (P46098 whole entry): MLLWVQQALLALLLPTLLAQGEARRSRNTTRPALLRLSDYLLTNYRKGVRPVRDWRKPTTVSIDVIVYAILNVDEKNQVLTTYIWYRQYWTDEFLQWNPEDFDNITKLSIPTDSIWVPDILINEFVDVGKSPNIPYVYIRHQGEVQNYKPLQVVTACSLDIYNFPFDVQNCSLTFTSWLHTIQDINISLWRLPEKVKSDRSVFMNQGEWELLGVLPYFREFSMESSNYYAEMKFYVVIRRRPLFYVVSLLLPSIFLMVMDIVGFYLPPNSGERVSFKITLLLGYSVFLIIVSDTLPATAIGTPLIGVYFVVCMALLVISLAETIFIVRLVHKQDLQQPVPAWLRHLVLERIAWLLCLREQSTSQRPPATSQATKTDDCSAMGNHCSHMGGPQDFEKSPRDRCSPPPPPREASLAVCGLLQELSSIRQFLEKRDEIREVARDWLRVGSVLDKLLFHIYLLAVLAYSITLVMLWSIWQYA
Serine/threonine-protein kinase TAO3 (Homo sapiens), sequence (Q9H2K8 whole entry): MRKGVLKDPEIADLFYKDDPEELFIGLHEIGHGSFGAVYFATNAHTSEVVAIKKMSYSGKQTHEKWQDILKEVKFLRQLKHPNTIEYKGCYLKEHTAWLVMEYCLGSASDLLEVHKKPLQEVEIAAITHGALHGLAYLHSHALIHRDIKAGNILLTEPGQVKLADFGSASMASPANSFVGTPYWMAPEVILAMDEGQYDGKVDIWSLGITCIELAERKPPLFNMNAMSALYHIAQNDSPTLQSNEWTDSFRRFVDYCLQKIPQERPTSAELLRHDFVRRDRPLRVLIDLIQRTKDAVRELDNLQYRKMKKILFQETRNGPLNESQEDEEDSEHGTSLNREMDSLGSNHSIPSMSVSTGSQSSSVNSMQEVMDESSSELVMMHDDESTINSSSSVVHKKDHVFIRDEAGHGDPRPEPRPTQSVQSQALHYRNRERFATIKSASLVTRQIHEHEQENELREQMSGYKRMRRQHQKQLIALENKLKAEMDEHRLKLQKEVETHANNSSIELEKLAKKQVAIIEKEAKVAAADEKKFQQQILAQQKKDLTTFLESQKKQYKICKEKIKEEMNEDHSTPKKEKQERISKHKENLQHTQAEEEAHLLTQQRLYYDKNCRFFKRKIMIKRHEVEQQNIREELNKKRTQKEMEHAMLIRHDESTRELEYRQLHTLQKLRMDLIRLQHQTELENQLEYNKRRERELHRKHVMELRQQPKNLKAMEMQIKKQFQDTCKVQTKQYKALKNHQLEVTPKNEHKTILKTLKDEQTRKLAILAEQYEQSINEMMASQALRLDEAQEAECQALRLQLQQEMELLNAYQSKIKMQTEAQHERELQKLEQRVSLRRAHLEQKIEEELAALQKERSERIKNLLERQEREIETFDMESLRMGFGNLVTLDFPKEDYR
Protein kinase C iota type (Homo sapiens), sequence (P41743 whole entry): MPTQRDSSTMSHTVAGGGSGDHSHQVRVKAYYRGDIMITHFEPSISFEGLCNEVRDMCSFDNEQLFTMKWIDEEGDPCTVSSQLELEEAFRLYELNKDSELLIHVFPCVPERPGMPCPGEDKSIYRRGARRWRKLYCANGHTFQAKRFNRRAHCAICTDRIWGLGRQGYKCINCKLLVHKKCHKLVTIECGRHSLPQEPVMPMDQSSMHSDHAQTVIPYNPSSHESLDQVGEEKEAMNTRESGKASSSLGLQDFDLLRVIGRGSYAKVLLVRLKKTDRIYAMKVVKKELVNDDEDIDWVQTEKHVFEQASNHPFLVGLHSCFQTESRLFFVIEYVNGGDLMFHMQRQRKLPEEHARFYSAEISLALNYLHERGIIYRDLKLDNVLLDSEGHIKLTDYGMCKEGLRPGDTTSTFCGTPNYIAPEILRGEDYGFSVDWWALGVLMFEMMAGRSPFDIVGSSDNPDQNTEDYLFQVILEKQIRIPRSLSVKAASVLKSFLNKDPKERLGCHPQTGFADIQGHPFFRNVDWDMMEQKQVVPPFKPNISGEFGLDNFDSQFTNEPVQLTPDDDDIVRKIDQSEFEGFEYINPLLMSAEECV
Mitogen-activated protein kinase kinase kinase 7 (Homo sapiens), sequence (O43318 whole entry): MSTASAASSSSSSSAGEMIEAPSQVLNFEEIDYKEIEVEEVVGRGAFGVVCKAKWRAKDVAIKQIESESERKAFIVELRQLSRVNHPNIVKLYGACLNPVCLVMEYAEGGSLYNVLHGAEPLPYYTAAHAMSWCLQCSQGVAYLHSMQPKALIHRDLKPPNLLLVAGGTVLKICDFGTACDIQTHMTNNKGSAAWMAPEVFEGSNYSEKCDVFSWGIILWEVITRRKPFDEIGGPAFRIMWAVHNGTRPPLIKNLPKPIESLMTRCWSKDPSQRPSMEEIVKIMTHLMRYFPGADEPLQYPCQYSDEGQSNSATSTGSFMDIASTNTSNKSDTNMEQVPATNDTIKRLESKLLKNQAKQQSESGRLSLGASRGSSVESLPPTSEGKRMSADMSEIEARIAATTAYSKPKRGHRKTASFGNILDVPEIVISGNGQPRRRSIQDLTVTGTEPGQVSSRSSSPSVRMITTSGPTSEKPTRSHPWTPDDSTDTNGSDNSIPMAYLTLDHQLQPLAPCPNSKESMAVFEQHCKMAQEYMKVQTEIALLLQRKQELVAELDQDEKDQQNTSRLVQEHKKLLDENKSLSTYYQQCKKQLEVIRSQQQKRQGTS
Sigma intracellular receptor 2, sequence (Q5BJF2 whole entry): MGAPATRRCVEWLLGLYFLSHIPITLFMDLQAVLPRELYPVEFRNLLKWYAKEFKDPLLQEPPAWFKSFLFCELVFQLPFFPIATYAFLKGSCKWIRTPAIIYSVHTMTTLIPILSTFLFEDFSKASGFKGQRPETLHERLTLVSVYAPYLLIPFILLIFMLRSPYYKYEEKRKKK

SMILES: COc1cnccc1Nc1nc(-c2nn(Cc3c(F)cc(OCCO)cc3F)c3ccccc23)ncc1OC
- inhibition (Rattus norvegicus): 2%
- inhibition at 60 min, 10 µM [1]: 53%
- inhibition (Homo sapiens): -4%
- Kd [2]: 3.3 nM
- residual activity ([2]; Compound concentration 1.0 uM): 0.05%
- Kd [3]: 2300 nM
- residual activity ([3]; Compound concentration 1.0 uM): 21%
- residual activity [4]: 39%
- residual activity [5]: 62%
- residual activity [6]: 70%
- residual activity [7]: 74%
- residual activity [8]: 77%
- residual activity [9]: 78%
- residual activity [10]: 82%
- residual activity [11]: 87%
- residual activity [12]: 89%
- residual activity [13]: 89%
- residual activity [14]: 89%
- residual activity [15]: 90%
- residual activity [16]: 90%
- residual activity [17]: 92%
- residual activity [18]: 95%
- residual activity [19]: 95%
- residual activity [20]: 95%
- residual activity [21]: 96%
- residual activity [22]: 96%
- residual activity [23]: 99%
- residual activity [24]: 100%
- residual activity [25]: 100%
- residual activity [26]: 100%
- residual activity [27]: 100%
- residual activity [28]: 100%
- residual activity [29]: 100%
- residual activity [30]: 100%
- residual activity [31]: 100%
- residual activity [32]: 100%
- residual activity [33]: 100%
- residual activity [34]: 100%
- residual activity [35]: 100%
- residual activity [36]: 100%
- residual activity [37]: 100%
- residual activity [38]: 100%
- residual activity [39]: 100%
- residual activity [40]: 100%
- inhibition [41]: -3%
- inhibition [42]: 1.96%
- inhibition [43]: -8.58%
- inhibition [44]: 13%
- inhibition [45]: 7%
